What was measured:
hepatocytes of mouse = test: In vitro metabolism study in hepatocytes, mouse; format: in vitro ADME; conditions: mouse hepatocyte suspension, 24 h incubation of 100 μM [14C]-Formula II
Method: Hepatocyte stability (Concentrations of the compound according to Formula II and its main metabolites (as % of total radioactivity) after 24 h incubation of 100 μM [^14C]-Compound according to Formula II in hepatocyte suspension of different species)

[1] = Single dose pharmacokinetics in animals, rat; format: in vivo, Sprague-Dawley rats
Method: Pharmacokinetic studies were performed in various animal species dosed with the compound according to Formula II to determine the exposure to the compound according to Formula I as well as its apparent terminal half life (T1/2), when possible. […]
(§1) Temperature was maintained at approximately 22° C., and food and water were provided ad libitum.
The compound according to […] was formulated in 0.5% methylcellulose and dosed orally to 3 or 6 animals as a single esophageal gavage at dose ranging from 15 to 180 mg/kg under a dosing volume of 5 or 10 mL/kg.
(§2) The compound according to Formula II was formulated in 0.5% methylcellulose and dosed orally to 3 animals (or 3 mouse/time points) as a single esophageal gavage at dose ranging from 15 to 45 mg/kg under a dosing volume of 5 or 10 mL/kg.
(§3) Blood samples were collected over a 24-h period via the jugular vein (dog, minipig), ear blood vessel (rabbit), cardiac puncture (mouse) or retro-orbital sinus (rat) with lithium heparin as anti-coagulant. Whole blood samples were centrifuged and the resulting plasma samples were stored at −20° C. pending analysis.
(§4) Plasma concentrations of the compound according to Formula I and of the compound according to Formula II were determined by an LC-MS/MS method with a limit of quantification ≦10.0 ng/mL for both Formula I and Formula II for all species.
(§5) Pharmacokinetic parameters were calculated using a statistical analysis package (WinNonLin (Pharsight, Sunnyvale, Calif.: CA 94086, USA).

[2] = Single dose pharmacokinetics in animals, rabbit; format: in vivo, New Zealand White rabbits
Method: (§6) Pharmacokinetic studies were performed in various animal species dosed with the compound according to Formula II to determine the exposure to the compound according to Formula I as well as its apparent terminal half life (T1/2), when possible.
Sprague-Dawley rats (male, 200-250 g), CD1 mice (male, 25-30 g), Beagle dogs (male, 9-10 kg), Göttingen minipigs (male, […]) were acclimatized for at least 7 days before treatment and were kept on a 12 hr light/dark cycle (07 h00-19 h00).
Temperature was maintained at approximately 22° C., and food and water were provided ad libitum. […]
as §3, §4, §5

[3] = Single dose pharmacokinetics in animals, minipig; format: in vivo, Göttingen minipigs; conditions: after Formula II 30 mg/kg oral; for AUC: male, Göttingen, plasma, read-out: exposure (expressed as AUC)
Method: as §6
Sprague-Dawley rats (male, 200-250 g), CD1 mice (male, 25-30 g), Beagle dogs (male, 9-10 kg), Göttingen minipigs (male, 10-15 kg) and New Zealand White rabbits (male, 3-5 kg) were acclimatized for at least 7 days before treatment and were kept on a 12 hr light/dark cycle (07 h00-19 h00).
as §1, §2, §3, §4, §5

[4] = male, Sprague-Dawley, plasma, after Formula II 45 mg/kg oral, read-out: exposure (expressed as AUC)
[5] = male, New Zealand White, plasma, after Formula II 20 mg/kg oral, read-out: exposure (expressed as AUC)

In vitro metabolic profile of Formula II (as % of total radioactivity) (hepatocytes of mouse) | half-life ([1]; Sprague-Dawley, plasma, 20 mg/kg, administration of Formula I, oral, read-out: Apparent terminal half life (converted)) | AUC ([1]; Sprague-Dawley, plasma, female, Formula I 20 mg/kg single oral dose, read-out: AUC) | AUC ([1]; Sprague-Dawley, plasma, female, Formula I 60 mg/kg single oral dose, read-out: AUC) | AUC ([1]; Sprague-Dawley, plasma, female, Formula I 180 mg/kg single oral dose, read-out: AUC) | AUC ([1]; Sprague-Dawley, plasma, male, Formula I 20 mg/kg single oral dose, read-out: AUC) | AUC ([1]; Sprague-Dawley, plasma, male, Formula I 60 mg/kg single oral dose, read-out: AUC) | AUC ([1]; Sprague-Dawley, plasma, male, Formula I 180 mg/kg single oral dose, read-out: AUC) | Ratio I/II of exposure (AUC Formula I : AUC Formula II) ([1]; after Formula II 45 mg/kg oral) | AUC [1, 4] | AUC ([2]; New Zealand White, plasma, female, Formula I 125 mg/kg single oral dose, read-out: AUC) | AUC ([2]; New Zealand White, plasma, female, Formula I 250 mg/kg single oral dose, read-out: AUC) | Ratio I/II of exposure (AUC Formula I : AUC Formula II) ([2]; after Formula II 20 mg/kg oral) | AUC [2, 5] | half-life ([2]; male, New Zealand White, plasma, oral, upon administration of Formula II, read-out: apparent terminal elimination half-life (converted)) | Ratio I/II of exposure (AUC Formula I : AUC Formula II) [3] | AUC [3] | In vitro metabolic profile of Formula II (as % of total radioactivity) (hepatocytes of mouse; listed as drawing 10) | SMILES
14% | 7 h | 25.2 µg·h/mL | 123 µg·h/mL | 541 µg·h/mL | 19.7 µg·h/mL | 102 µg·h/mL | 376 µg·h/mL | 0.40 | 13.3 µg·h/mL | 777 µg·h/mL | 1030 µg·h/mL | 0.38 | 10 µg·h/mL | 4.6 h | 0.88 | 16.7 µg·h/mL | – | Nc1nc2cccc(-c3ccc(CN4CCS(=O)(=O)CC4)cc3)n2n1 [Formula I, 5-[4-(1,1-Dioxothiomorpholin-4-ylmethyl)-phenyl]-[1,2,4]triazolo[1,5-a]pyridin-2-ylamine]
at least 80% | – | – | – | – | – | – | – | – | 33.3 µg·h/mL | – | – | – | 26 µg·h/mL | – | – | 19.1 µg·h/mL | 85% | O=C(Nc1nc2cccc(-c3ccc(CN4CCS(=O)(=O)CC4)cc3)n2n1)C1CC1 [Formula II, Cyclopropanecarboxylic acid {5-[4-(1,1-dioxo-thiomorpholin-4-ylmethyl)-phenyl]-[1,2,4]triazolo[1,5-a]pyridin-2-yl}-amide]

Reference: US20160296529A1, “AMINOTRIAZOLOPYRIDINE FOR USE IN THE TREATMENT OF INFLAMMATION, AND PHARMACEUTICAL COMPOSITIONS THEREOF” (priority 2012, published 2016)
